# Patent US20210038579A1, “Treatment Of Patients With Classic Fabry Disease” (Amicus Therapeutics, Inc., priority 2018, published 2021)
# Where a chain is given by its changes, count along the chain named.
# Tests used:
# Assay in all cases: HEK assay: α-Gal A activity in HEK-293 cell lysate with migalastat
# Assay type in all cases: cell-based
# [1] = biological target: T1, α-Gal A mutant form p.Gly260Ala (c.779 G > C) (Homo sapiens, UniProt P06280, G260A)
# T1 construct: expressed in transfected cells; host or cells: HEK-293
# T1 sequence (P06280 32-429 G260A): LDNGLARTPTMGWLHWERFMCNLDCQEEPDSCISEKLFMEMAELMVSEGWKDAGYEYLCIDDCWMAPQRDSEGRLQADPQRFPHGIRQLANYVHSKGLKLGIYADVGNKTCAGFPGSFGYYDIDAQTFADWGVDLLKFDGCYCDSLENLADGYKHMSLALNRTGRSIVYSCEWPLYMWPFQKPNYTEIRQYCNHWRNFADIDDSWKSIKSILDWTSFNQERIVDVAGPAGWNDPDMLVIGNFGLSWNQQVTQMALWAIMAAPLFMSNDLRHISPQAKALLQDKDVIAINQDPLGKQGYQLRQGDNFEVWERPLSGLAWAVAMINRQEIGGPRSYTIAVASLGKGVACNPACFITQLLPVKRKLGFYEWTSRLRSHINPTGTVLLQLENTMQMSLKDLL
# Description: (§1) Such mutations are also referred to herein as “HEK assay amenable” mutations.
# (§2) In this assay, cDNA constructs are created. The corresponding α-Gal A mutant forms are transiently expressed in HEK-293 cells. Cells are then incubated±migalastat (17 nM to 1 mM) for 4 to 5 days. After, α-Gal A levels are measured in cell lysates using a synthetic fluorogenic substrate (4-MU-α-Gal) or by western blot. This has been done for known disease-causing missense or small in-frame insertion/deletion mutations.
# [2] = biological target: T2, α-Gal A mutant form p.Gly85Asp (c.254 G > A) (Homo sapiens, UniProt P06280, G85D)
# T2 construct: expressed in transfected cells; host or cells: HEK-293
# T2 sequence (P06280 32-429 G85D): T1 sequence (P06280 32-429 G260A) with G54D, A229G
# Description: as §1, §2
# [3] = biological target: T3, α-Gal A mutant form p.Leu300Pro (c.899 T > C) (Homo sapiens, UniProt P06280, L300P)
# T3 construct: expressed in transfected cells; host or cells: HEK-293
# T3 sequence (P06280 32-429 L300P): T1 sequence (P06280 32-429 G260A) with A229G, L269P
# Description: as §1, §2
# [4] = biological target: T4, α-Gal A mutant form p.Met187Ile (c.561 G > A) (Homo sapiens, UniProt P06280, M187I)
# T4 construct: expressed in transfected cells; host or cells: HEK-293
# T4 sequence (P06280 32-429 M187I): T1 sequence (P06280 32-429 G260A) with M156I, A229G
# Description: as §1, §2
# [5] = biological target: T5, α-Gal A mutant form p.Pro293Thr (c.877 C > A) (Homo sapiens, UniProt P06280, P293T)
# T5 construct: expressed in transfected cells; host or cells: HEK-293
# T5 sequence (P06280 32-429 P293T): T1 sequence (P06280 32-429 G260A) with A229G, P262T
# Description: as §1, §2
# [6] = +10 μM migalastat, HEK-293 cell lysate, mean ± SEM, n = 20
# [7] = HEK293, 10 μM migalastat minus baseline, read-out: Absolute increase at 10 μM (% WT)
compound,measurement,setting,value
OC[C@H]1NC[C@H](O)[C@@H](O)[C@H]1O [migalastat],α-Gal A activity at 10 μM (fold over baseline),[1]; 10 μM migalastat,4.84 fold over baseline
same,+Migalastat α-Gal A activity,[1]; [6],10749 ± 403 nmol/mg/h
same,+Migalastat α-Gal A activity % WT,[1]; [6],37.4 ± 3.1 % WT
same,activation at 10 µM,[1]; [7],29.9%
same,α-Gal A activity at 10 μM (fold over baseline),[2]; 10 μM migalastat,5.10 fold over baseline
same,+Migalastat α-Gal A activity,[2]; [6],4534 ± 135 nmol/mg/h
same,+Migalastat α-Gal A activity % WT,[2]; [6],14.3 ± 0.9 % WT
same,activation at 10 µM,[2]; [7],11.6%
same,α-Gal A activity at 10 μM (fold over baseline),[3]; 10 μM migalastat,10.35 fold over baseline
same,+Migalastat α-Gal A activity,[3]; [6],13219 ± 412 nmol/mg/h
same,+Migalastat α-Gal A activity % WT,[3]; [6],37.9 ± 1.2 % WT
same,activation at 10 µM,[3]; [7],34.2%
same,α-Gal A activity at 10 μM (fold over baseline),[4]; 10 μM migalastat,6.10 fold over baseline
same,+Migalastat α-Gal A activity,[4]; [6],10824 ± 555 nmol/mg/h
same,+Migalastat α-Gal A activity % WT,[4]; [6],30.7 ± 1.1 % WT
same,activation at 10 µM,[4]; [7],25.6%
same,α-Gal A activity at 10 μM (fold over baseline),[5]; 10 μM migalastat,19.60 fold over baseline
same,+Migalastat α-Gal A activity,[5]; [6],4488 ± 327 nmol/mg/h
same,+Migalastat α-Gal A activity % WT,[5]; [6],13.3 ± 1.1 % WT
same,activation at 10 µM,[5]; [7],12.7%
